{
  "source": "patent US20240124520A1",
  "about": "“N-ACYLATED HISTIDINE DIPEPTIDES AS ANTICANCER AGENTS” (THE BOARD OF TRUSTEES OF THE LELAND STANFORD JUNIOR …, priority 2019, published 2024)",
  "key": {"[1]": {"test_system": "hTERT-HME1 healthy human breast epithelial cells", "test": "Cell Titer Blue in vitro cell viability assay, hTERT-HME1", "type": "cell-based", "conditions": "72 h, hTERT-HME1 (MEGM), 3 days at 37° C.", "protocol": "(§1) FIG. 6: Dose Response curve for MBC0179 with hTERT-HME1 cells in MEGM Media. Compound MBC0179 was incubated with hTERT-HIE1 healthy human breast epithelial cells in growth factor-rich MEGM media at the indicated concentrations for 3 days at 37° C. prior to Cell Titer Blue fluorescence-based cell viability assay. Normalized cell viability data, expressed as a percentage, are averaged from three biological replicates and standard error represented by error bars for each averaged data point (empty squares). The compound concentrations are represented on log scale on the x-axis in μM units. Data were analyzed using free software called DrFit, as described in Nature Scientific Reports, Article number: 14701, (2015). […]\n(§2) The Cell Titer Blue reagent (available from Promega, Inc.) is a buffered solution containing resazurin, a compound that is converted to resorufin, a detectable fluorescent product, by metabolically active cells. The fluorescence intensity of resorufin product therefore serves as a proportional measure of the number of viable cells, permitting changes in cell viability within cancer or other cell lines to be monitored in response to the addition of cytotoxic or cytostatic agents. […] Metastases to the lungs may be conveniently quantified by a well-established clonogenic assay. […]"}, "[2]": {"test_system": "4T1 murine breast cancer cell line-derived mammary tumors, metastasis to the lungs", "test": "4T1 mouse breast cancer lung metastasis study (clonogenic assay)", "type": "in vivo", "conditions": "Balb/c mice", "protocol": "FIG. 17: 4T1 Mouse Breast Cancer Lung Metastasis Study with MBC0179. Compound MBC0179 (in 7% w/v Cremophore EL/10% v/v ethanol/[…] vehicle) or vehicle only was administered intravenously to three groups of six Balb/c mice (8 week old) carrying 4T1 murine breast cancer cell line-derived mammary tumors, one week post-implantation. After twice weekly dosing for four weeks with vehicle (blue bar), 10 mg/kg (red bar) or 15 mg/kg (green bar) MBC0179, the mice were humanely euthanized according to IACUC guidelines and lungs excised for 4T1 colonogenic assay in order to provide a measure of 4T1 metastasis to the lungs. The colony counts were plotted, averaged and standard error calculated (error bars). […] Additonally, the percentage reduction in lung-derived 4T1 colonies between the vehicle and 15 mg/kg MBC0179 treatment group was calculated based on the average colony counts for each group, normalizing to the vehicle group, indicated on chart.\nThe Cell Titer Blue reagent (available from Promega, Inc.) is a buffered solution containing resazurin, a compound that is converted to resorufin, a detectable fluorescent product, by metabolically active cells. […] Metastases to the lungs may be conveniently quantified by a well-established clonogenic assay. […]"}, "[3]": {"test_system": "K-562 human chronic myelogenous leukemia cells", "test": "Cell Titer Blue in vitro cell viability assay, K-562", "type": "cell-based", "conditions": "72 h, K562 (DMEM), in suspension, 3 days at 37° C.", "protocol": "as §1, with “11:” for “6:”, “K-562 cells.” for “hTERT-HME1 cells in MEGM Media.”, “K-562” for “hTERT-HIE1 healthy”, “chronic myelogenous leukemia cells, a non-adherent cell line,” for “breast epithelial cells in growth factor-rich MEGM media”\nas §2"}, "[4]": {"test_system": "SK-N-SH human neuroblastoma cells", "test": "Cell Titer Blue in vitro cell viability assay, SK-N-SH", "type": "cell-based", "conditions": "72 h, SK-N-SH (DMEM), 3 days at 37° C.", "protocol": "as §1, with “15:” for “6:”, “SK—N—SH cells.” for “hTERT-HME1 cells in MEGM Media.”, “SK—N—SH” for “hTERT-HIE1 healthy”, “neuroblastoma” for “breast epithelial”, “cells” for “cells in growth factor-rich MEGM media”\nas §2"}},
  "note": "Non-standard residues stand in square brackets, D forms with d. Residues, ends and D or L forms follow the SMILES beside them. *: point of attachment. Palmitoyl = CCCCCCCCCCCCCCCC(=O)*",
  "data": [
    {"compound": "CCCCCCCCCCCCCCCC(=O)N[C@H](Cc1c[nH]cn1)C(=O)N[C@@H](C(=O)OCC)C(C)C", "note": "[Compound 5, N-[N-(1-oxohexadecyl)-D-histidyl]-D-valine ethyl ester] (Palmitoyl-[dH]-[dV]-OEt)", "values": [
      {"measurement": "IC50", "setting": "[1]", "result": 270, "unit": "µM"},
      {"measurement": "lung metastases (average 4T1 colony counts)", "setting": "[2]; 10 mg/kg and 15 mg/kg intravenous twice weekly vs vehicle", "result": "dose-dependent reduction in lung metastases"},
      {"measurement": "percent reduction in lung metastases", "setting": "[2]; 15 mg/kg intravenous twice weekly for four weeks vs vehicle, lung-derived 4T1 colonies, p=0.03, two-tailed t-test", "result": 74.4, "unit": "%"},
      {"measurement": "IC50", "setting": "[3]", "result": 6.11, "unit": "µM"},
      {"measurement": "IC50", "setting": "[4]", "result": 35, "unit": "µM"}
    ]}
  ]
}
